The values below come from PubChem BioAssay AID1996.

≈ marks a conversion by molar mass, not a printed value.

The conditions of the series: buffer; pH 7.4; 200.0 µM.
As to `Cc1cc(C)nc(Nc2nc(-c3ccccc3)cs2)n1`, the kinetic solubility (commonly solubility judged after dilution from a stock solution rather than from solid) was below 0.2 µg/mL. In the case of `COc1cccc(-c2cc(C(=O)NC3CCCC3)c3ccccc3n2)c1` it was 1.3 µg/mL (≈ 3.75 µM).

The compound `NC1CCN(c2c(F)cc3c(=O)c(C(=O)O)cn(C4CC4)c3c2Cl)C1` (stereo unspecified) displayed a kinetic solubility above 54.9 µg/mL. As for `O=C(NCCN1C(=O)S/C(=C\c2ccc(Cl)cc2)C1=O)C1=COCCO1`, the solubility (kinetic) came out at 2.6 µg/mL (≈ 6.59 µM).

Compound `Cc1cccc(C)c1OP(N)(=O)Oc1c(C)cccc1C` displayed a kinetic solubility of 10.8 µg/mL (≈ 35.4 µM). `O=c1[nH]c(/C=C\c2ccc(O)c(O)c2)nc(O)c1[N+](=O)[O-]` yielded a solubility (kinetic) above 43.7 µg/mL.

For the compound `O=C(CNC(=O)c1ccc(Br)o1)NCC1CCCO1` (stereo unspecified), the solubility (kinetic) is above 49.7 µg/mL. The value for `O=C(CSc1ccc(-c2ccc(F)cc2)nn1)N1CCOCC1` was above 50 µg/mL; that for `Cc1cccc(NC(=O)CCC(=O)c2cccs2)n1` was above 41.2 µg/mL; that for `COC(=O)c1cccc(Nc2nc(-c3ccncc3)nc3ccccc23)c1` was below 0.2 µg/mL. The compound `COc1ccccc1C(=O)NCC(=O)N1CC=C(c2ccccc2)CC1` yielded a solubility (kinetic) of 4.5 µg/mL (≈ 12.8 µM). As to `Cc1[nH]c(C(=O)O)c(C#N)c1C(=O)c1ccccc1`, the solubility (kinetic) is above 38.1 µg/mL. On to `CCOc1cccc(C(=O)Nc2ccc3oc(-c4cccnc4)nc3c2)c1`, for which the solubility (kinetic) was below 0.3 µg/mL. In the case of `COc1cccc(NC(=O)c2cnc(SC)nc2C)c1` it was above 43.4 µg/mL; in that of `COc1cccc(C2(C)NC(=O)N(CC(=O)Nc3ccc(N4CCOCC4)cc3)C2=O)c1` (stereo unspecified), 57.7 µg/mL (≈ 132 µM); in that of `Cc1c2n(c3ccccc13)CC/C2=N\O`, 4.9 µg/mL (≈ 24.5 µM). In the case of `Cc1ccc(SCC(=O)NC(=O)NCCC(C)C)c(C)c1` it was 1.4 µg/mL (≈ 4.54 µM); in that of `Cc1nc2ccc(NC(=S)N3CCOCC3)cc2nc1C`, 39.3 µg/mL (≈ 130 µM); in that of `Cc1cc(Cl)ccc1NC(=O)CN1CCCC1`, above 37.9 µg/mL. The value for `Cc1ccc(S(=O)(=O)c2c[nH]c3ccc(Cl)cc3c2=O)cc1` was below 0.7 µg/mL; that for `COc1ccc(CCNC(=O)COC(=O)/C=C/c2ccc(OC)cc2OC)cc1` was 5.1 µg/mL (≈ 12.8 µM); that for `COc1cccc2c(O)c(-c3ccccc3)c(=O)[nH]c12` was above 40.1 µg/mL. As for `O=C(Nc1cc(=O)[nH]c(=O)[nH]1)c1cccc(C(F)(F)F)c1`, the kinetic solubility was above 44.9 µg/mL.

On to `CC(=O)c1ccc(NC(=O)COC(=O)c2c[nH]c3ccccc23)cc1`, for which the solubility (kinetic) is 1.8 µg/mL (≈ 5.35 µM). In the case of `O=C(CCCOc1ccc(Cl)cc1Cl)NCc1ccncc1` it was 43.6 µg/mL (≈ 129 µM); in that of `CC(C)(Oc1ccc(Cl)cc1)C(=O)N1CCC(C(N)=O)CC1`, 48.7 µg/mL (≈ 150 µM). Take `CN(C(=O)Nc1ccccc1)C1CCCc2ccccc21` (stereo unspecified): the solubility (kinetic) was above 42.1 µg/mL. Regarding `FC(F)(F)C1=Nc2cccc3cccc(c23)N1`, the solubility (kinetic) amounted to 13.5 µg/mL (≈ 57.2 µM). As to `O=C(COc1ccccc1Cl)Nc1ccc2c(c1)OCO2`, the solubility (kinetic) is 1.2 µg/mL (≈ 3.93 µM). This solubility kinetic lies about 11-fold lower than the previous one. As for `c1ccc(-n2cc(CN3CCCC3)c(-c3ccc4c(c3)OCO4)n2)cc1`, the kinetic solubility is above 52.1 µg/mL. Turning to `CC(=O)c1ccc(NC(=S)NCc2ccco2)cc1`, the kinetic solubility is above 41.2 µg/mL. Regarding `CCN=C1S/C(=C\c2cc(Br)c(O)c(OC)c2)C(=O)N1CC`, the kinetic solubility came to 1.3 µg/mL (≈ 3.37 µM). The value for `Cc1cc(NC(=O)C2CC(=O)N(c3ccc(Cl)cc3)C2)no1` (stereo unspecified) was 31 µg/mL (≈ 97 µM); that for `O=Cc1cn(CCOc2ccccc2)c2ccccc12` was 12.9 µg/mL (≈ 48.6 µM). The value for `C=CCON/C(CCC)=C1\C(=O)C(C(=O)OC)C(C)(C)CC1=NC` (stereo unspecified) was 40.4 µg/mL (≈ 120 µM); that for `O=C(N/C(=C\c1ccco1)C(=O)N1CCCCC1)c1ccc([N+](=O)[O-])cc1` was 3.6 µg/mL (≈ 9.75 µM). With `CCC(Oc1ccc(C)c(C)c1)C(=O)N1CCCN(C)CC1` (stereo unspecified), the kinetic solubility was above 45.7 µg/mL. `O=C(COC(=O)C12CC3CC(CC(C3)C1)C2)Nc1nccs1` registered a kinetic solubility below 0.3 µg/mL. The value for `CCCCN(C)C1CCN(C(=S)Nc2cccc(OC)c2)CC1` was above 50.3 µg/mL. In the case of `C=CCNc1nc(C)c(CNc2c(C)cc(C)cc2C)nc1C#N` it was 0.9 µg/mL (≈ 2.8 µM); in that of `Cc1cc(C)n2nc(SCC(=O)N3CCCC(C)C3)nc2n1` (stereo unspecified), above 47.9 µg/mL. The value for `CC(=O)C1=C(O)C(=O)N(Cc2ccccc2)C1c1ccc([N+](=O)[O-])cc1` (stereo unspecified) was above 52.9 µg/mL; that for `Cc1cccc(-c2nc(CNC(=O)c3ccco3)cs2)c1` was above 44.8 µg/mL. The compound `O=C(CNC(=O)c1ccc(Br)cc1)NCc1cccnc1` yielded a kinetic solubility of 49.3 µg/mL (≈ 142 µM). In the case of `CCn1ncc(-c2ccnc3cc(C(=O)O)nn23)c1C` it was above 40.7 µg/mL; in that of `O=[N+]([O-])c1c(NCCCO)cc(N2CCCCCC2)c2nonc12`, 28.6 µg/mL (≈ 85.3 µM). The value for `O=C(COC(=O)c1ccc2c(c1)OCO2)Nc1ccccc1` was 4.5 µg/mL (≈ 15 µM). Consider `Cc1cccc(Nc2cc(C)nc3ccccc23)c1.Cl`, for which the solubility (kinetic) is above 42.7 µg/mL. In the case of `CCCc1nc2ccccc2n1C(=S)SC` it was 12.3 µg/mL (≈ 49.1 µM). With `CCOC(=O)c1oc2ccc(Cl)cc2c1NC(C)=O`, the kinetic solubility came out at 4.8 µg/mL (≈ 17 µM). `CCOC(=O)N1CCN(CC(=O)Nc2sccc2C#N)CC1` registered a solubility (kinetic) above 48.4 µg/mL.
